Source: patent US20050244472A1, “Intraocular drug delivery systems containing excipients with reduced toxicity and related methods” (Allergan, Inc., priority 2004, published 2005)
Where “and” joins values, the source holds several entries; their conditions need not be identical. Equal entries are not always repeated. Where two headings read alike, the source gives them in different places. Blank lines part the entries; values can stand above or below the substance they belong to.

Key:
ARPE-19 cells [1] = assay: MTT cell viability assay (mitochondrial dehydrogenase activity) after exposure to excipient
From the text: Cell viability and cell morphology were examined to evaluate the toxicity of excipients on retinal pigment epithelial cells. The human retina cell line used in these experiments is the ARPE-19 cell line (human adult-derived retinal pigmented epithelial cells). […] They form tight-junctions with transepithelial resistance of monolayers (Dunn K C et al., supra). From a molecular standpoint, it appears that ARPE-19 express a huge pattern of genes similar to those expressed by human RPE from fresh explant which could account for their physiological function (Klimanskaya I. et al., “Derivation and comparative assessment of retinal pigment epithelium from human embryonic stem cells using transcriptomics”, Cloning and Stem Cells, 2004, 6(3):217-45).
ARPE-19 cells are widely used as a retinal model that resemble physiological properties of RPE cells. Similar methods of culturing ARPE-19 cells and cytotoxicity assays can be found in Yeung et al., “Cytotoxicity of triamcinolone on cultured human retinal pigment epithelial cells: comparison with dexamethasone and hydrocortisone”, Jpn J. Ophthalmol, 2004; 48:236-242. Cell viability and cell morphology were examined using conventional colormetric and visual methods. Viability and morphology measurements were obtained at 24 hours, 48 hours, and 72 hours after exposure to an excipient composition.
To assess cell viability, mitochondrial metabolism was quantified through conventional colorometric assays (i.e., the MTT assay). This colorimetric assay utilizes 3-(4,5-dimethylthiazol-2-yl)-2,5-diphenyltetrazolium bromide (MTT) and correlates mitochondrial metabolism and cell viability through measurement of dehydrogenase activity which converts a substrate into crystal. More specifically, the assay measures the activity of living cells through mitochondrial dehydrogenases. When dissolved in culture cell medium, MTT solution appears dark orange. Mitochondrial dehydrogenases of viable cells degrade MTT by cleaving the tetrazolium ring yielding to formation of a purple formazan crystal, which is insoluble in water. Crystals are subsequently dissolved in isopropanol solution. A resulting purple solution is spectrophotometrically measured. Cell viability is relative to amount of formazan and calculated as a percentage of remaining treated compared to non-treated cells.
Results from the MTT assay were expressed as a percentage of cell viability calculated using the following equation: % cell viability=ODtest/ODcontrol×100.
For each experiment, one concentration was performed in triplicate. Each point was spectrophotometrically read twice. Average of readings was calculated, then average from these 3 values was determined.
After 3 experiments were independently completed under the same conditions, a graph was plotted with cell viability expressed as a function of concentration (dose response) and for various incubation period (time course). The IC50 was then estimated based on the graphed data.
More specifically, cell density in 24-multiwell plates was observed on the day of the experiment to check if confluence of the cells was reached. Aliquots of MTT concentrated solutions were removed from a freezer at −20° C. and thawed at room temperature. Cell medium was warmed at 37° C. before use. Appropriated tubes for diluting compounds were prepared. Higher concentrations of each excipient agent was prepared. Serial dilution was then performed in cell medium (DMEM:F12+10% FBS).
Cell culture medium in the 24-well plate was removed using vacuum-pump. Cells were then stimulated with 0.5 ml final volume for each concentration of one given excipient agent. Distribution of the excipient-containing solution was performed using automated pipet-aid in sterile environment (under PSM) or not depending on time of compounds and duration of incubation.
After stimulation, cells were replaced in a CO2 incubator for the required time of exposure.

[2] = pH of excipient-containing incubating solutions; format: physicochemical
Procedure: (§1) For each concentration of tested compound, pH and osmolarity parameters were measured.

[3] = Osmolarity of excipient-containing incubating solutions; format: physicochemical
Procedure: Osmolarity was measured using osmometer type 13/13DR from Roebling (Berlin, GR).
as §1

ARPE-19 cells [4] = format: cell-based; design: key to Cell Morphology score, Mean: 5 = basal (wild type) to 1 = lethal phenotype
Procedure: Cell morphology was visualized using light microscopy. Cell morphology observation using light microscopy permits determination of (i) cell number and density and (ii) whether or not cells in contact with an excipient agent display modified phenotype compared to a non-treated population of cells.
Cell morphology was analyzed in parallel by semi-quantitative scoring ranging from 5 to 1, from basal to lethal phenotype respectively, as shown in FIG. 23.
More specifically, cells were removed from an incubator for examination. Morphological shape of cells was visualized using a light microscope and CCD camera. Every 3 wells of a given concentration was observed through image analysis software. Then, a representative photograph describing the average appearance of cells was saved. The supernatant was either, kept for further predefined experiments to perform, or removed using vacuum-pump.
Resulting semi-quantitative scoring is represented as a function of time course and dose response. Score 5: wild type phenotype of non-treated cells, 100% confluent adherent cells. This phenotype very much vary following post-seeding time. For example, at confluence ARPE-19 cells at 1 day appear well defined with visible outer membrane and dark grey cytoplasm. After 3 days of confluence, limits between cells become less visible and cells adopt a more hexagonal shape and constitute an epithelium-like uniform dense structure. Score 4: density<100%. Cell shape has changed, some spaces are present between cells, few cells possibly detached. Score 3: […]. Spaces are sometimes present among cells, areas appears confluent while in others, cells detached. General cell shape starts showing non negligible alterations. Score 2: Cell density<50%. Cells adopt exclusively stressed appearance, presence of mass dead floating cells. Score 1: Cell density<10%. Presence of almost exclusively dead cells.
Based on quotation, each condition of the applied compound was given a score which allow to a morphology evolution profile to be prepared, ie. cell morphology as a function of compound concentration and time of exposure. […]

[5] = 0.1% excipient dilution in culture medium
[6] = 0.5% excipient dilution in culture medium
[7] = 1% excipient dilution in culture medium
[8] = 5% excipient dilution in culture medium
[9] = 10% excipient dilution in culture medium
[10] = 20% excipient dilution in culture medium
[11] = 0.01% excipient dilution in culture medium
[12] = 0.02% excipient dilution in culture medium
[13] = 0.04% excipient dilution in culture medium
[14] = 0.06% excipient dilution in culture medium
[15] = 0.08% excipient dilution in culture medium

pH [2, 5]: 7.6 | pH [2, 6]: 7.6 | pH [2, 7]: 7.5 | pH [2, 8]: 7.5 | pH [2, 9]: 7.5 | pH [2, 10]: 7.6 | mOsm [3, 5]: 309 mOsm | mOsm [3, 6]: 317 mOsm | mOsm [3, 7]: 325 mOsm | mOsm [3, 8]: 375 mOsm | mOsm [3, 9]: 459 mOsm | mOsm [3, 10]: 635 mOsm
Substance: hydroxypropyl beta-cyclodextrin [Kleptose]
cell survival (ARPE-19 cells [1]; 5% (w/v), 24 hour time point): about 20%

Substance: hydroxypropyl gamma-cyclodextrin [Cavasol]
effect on both cell parameters (viability and morphology) (ARPE-19 cells [1]): no measurable effect | percentage of living cells (ARPE-19 cells [1]; 0.05 to 10%, recovery after 24 h): > 80% | reduction of cell survival (ARPE-19 cells [1]; 0.1% (w/v), 24 hour, 48 hour and 72 hour time points): ≤ 10% | IC50 (50% cell viability inhibition) (ARPE-19 cells [1]; deduced from viability graphs, incubation 24-72 h): not possible to determine the IC50

Substance: hydroxypropylmethyl cellulose [HPMC]
diminution of cell viability (ARPE-19 cells [1]): 20-40% | percentage of cell viability (ARPE-19 cells [1]): 60-80%

Substance: poloxamer 407nf
increase in cell viability up to (ARPE-19 cells [1]): up to 200%

pH [2, 11]: 7.5 | pH [2, 12]: 7.6 | pH [2, 13]: 7.5 | pH [2, 14]: 7.5 | pH [2, 15]: 7.5 | pH [2, 5]: 7.6 | mOsm [3, 11]: 310 mOsm | mOsm [3, 12]: 307 mOsm | mOsm [3, 13]: 313 mOsm | mOsm [3, 14]: 346 mOsm | mOsm [3, 15]: 390 mOsm | mOsm [3, 5]: 523 mOsm
Substance: polysorbate 80
overall cytotoxicity to ARPE-19 cells (conclusion in words) (ARPE-19 cells [1]): barely tolerated | cell survival (ARPE-19 cells [1]; 0.1% (w/v)): substantially zero | Cell Morphology score (ARPE-19 cells [4]; 0.01% Tween80, 24 Hours): 4 (Score 4: density<100%) | Cell Morphology score, Mean (ARPE-19 cells [4]; 0.01% Tween80, 24 Hours): 4.0 | Cell Morphology score (ARPE-19 cells [4]; 0.01% Tween80, 48 Hours): 4 (Score 4: density<100%) | Cell Morphology score, Mean (ARPE-19 cells [4]; 0.01% Tween80, 48 Hours): 4.0 | Cell Morphology score (ARPE-19 cells [4]; 0.01% Tween80, 72 Hours): 4 (Score 4: density<100%) | Cell Morphology score, Mean (ARPE-19 cells [4]; 0.01% Tween80, 72 Hours): 4.0 | Cell Morphology score (ARPE-19 cells [4]; 0.02% Tween80, 24 Hours): 3 (Score 3: 80%<Cell density<40%) and 4 (Score 4: density<100%) | Cell Morphology score, Mean (ARPE-19 cells [4]; 0.02% Tween80, 24 Hours): 3.3 | Cell Morphology score (ARPE-19 cells [4]; 0.02% Tween80, 48 Hours): 3 (Score 3: 80%<Cell density<40%) and 4 (Score 4: density<100%) | Cell Morphology score, Mean (ARPE-19 cells [4]; 0.02% Tween80, 48 Hours): 3.3 | Cell Morphology score (ARPE-19 cells [4]; 0.02% Tween80, 72 Hours): 3 (Score 3: 80%<Cell density<40%) and 4 (Score 4: density<100%) | Cell Morphology score, Mean (ARPE-19 cells [4]; 0.02% Tween80, 72 Hours): 3.7 | Cell Morphology score (ARPE-19 cells [4]; 0.04% Tween80, 24 Hours): 3 (Score 3: 80%<Cell density<40%) and 4 (Score 4: density<100%) | Cell Morphology score, Mean (ARPE-19 cells [4]; 0.04% Tween80, 24 Hours): 3.3 | Cell Morphology score (ARPE-19 cells [4]; 0.04% Tween80, 48 Hours): 3 (Score 3: 80%<Cell density<40%) | Cell Morphology score, Mean (ARPE-19 cells [4]; 0.04% Tween80, 48 Hours): 3.0 | Cell Morphology score (ARPE-19 cells [4]; 0.04% Tween80, 72 Hours): 3 (Score 3: 80%<Cell density<40%) | Cell Morphology score, Mean (ARPE-19 cells [4]; 0.04% Tween80, 72 Hours): 3.0 | Cell Morphology score (ARPE-19 cells [4]; 0.06% Tween80, 24 Hours): 3 (Score 3: 80%<Cell density<40%) | Cell Morphology score, Mean (ARPE-19 cells [4]; 0.06% Tween80, 24 Hours): 3.0 | Cell Morphology score (ARPE-19 cells [4]; 0.06% Tween80, 48 Hours): 3 (Score 3: 80%<Cell density<40%) | Cell Morphology score, Mean (ARPE-19 cells [4]; 0.06% Tween80, 48 Hours): 3.0 | Cell Morphology score (ARPE-19 cells [4]; 0.06% Tween80, 72 Hours): 3 (Score 3: 80%<Cell density<40%) | Cell Morphology score, Mean (ARPE-19 cells [4]; 0.06% Tween80, 72 Hours): 3.0 | Cell Morphology score (ARPE-19 cells [4]; 0.08% Tween80, 24 Hours): 2 (Score 2: Cell density<50%) and 3 (Score 3: 80%<Cell density<40%) | Cell Morphology score, Mean (ARPE-19 cells [4]; 0.08% Tween80, 24 Hours): 2.3 | Cell Morphology score (ARPE-19 cells [4]; 0.08% Tween80, 48 Hours): 2 (Score 2: Cell density<50%) and 1 (Score 1: Cell density<10%) | Cell Morphology score, Mean (ARPE-19 cells [4]; 0.08% Tween80, 48 Hours): 1.7 | Cell Morphology score (ARPE-19 cells [4]; 0.08% Tween80, 72 Hours): 1 (Score 1: Cell density<10%) | Cell Morphology score, Mean (ARPE-19 cells [4]; 0.08% Tween80, 72 Hours): 1.0 | cells floating in a typical round dead shape (ARPE-19 cells [4]; 0.1%): over 95% | Cell Morphology score (ARPE-19 cells [4]; 0.1% Tween80, 24 Hours): 1 (Score 1: Cell density<10%) | Cell Morphology score, Mean (ARPE-19 cells [4]; 0.1% Tween80, 24 Hours): 1.0 | Cell Morphology score (ARPE-19 cells [4]; 0.1% Tween80, 48 Hours): 1 (Score 1: Cell density<10%) | Cell Morphology score, Mean (ARPE-19 cells [4]; 0.1% Tween80, 48 Hours): 1.0 | Cell Morphology score (ARPE-19 cells [4]; 0.1% Tween80, 72 Hours): 1 (Score 1: Cell density<10%) | Cell Morphology score, Mean (ARPE-19 cells [4]; 0.1% Tween80, 72 Hours): 1.0 | Morphology limit concentration (%) (ARPE-19 cells [4]; ARPE-19 cells, Table 3 summary): 0.06% | critical limit for lethality (injured cell aspect) (ARPE-19 cells [4]; morphology): 0.06%

Substance: sodium carboxymethylcellulose [CMC]
percentage of cell viability (ARPE-19 cells [1]): 80-100%

pH [2, 5]: 7.6 | pH [2, 6]: 7.6 | pH [2, 7]: 7.6 | pH [2, 8]: 7.6 | pH [2, 9]: 7.7 | pH [2, 10]: 7.7 | mOsm [3, 5]: 310 mOsm | mOsm [3, 6]: 318 mOsm | mOsm [3, 7]: 333 mOsm | mOsm [3, 8]: 408 mOsm | mOsm [3, 9]: 518 mOsm | mOsm [3, 10]: 710 mOsm
Substance: sulfobutyl ether 4 beta-cyclodextrin [Captisol]
Cell Viability, Mean (%) (ARPE-19 cells [1]): 40% | overall cytotoxicity to ARPE-19 cells (conclusion in words) (ARPE-19 cells [1]): mild cytotoxicity
